Laboratory results reported in US12358885B2, “Substituted n-propylamine fused heterocyclic mescaline derivatives” (Enveric Biosciences Canada Inc., priority 2022, dated 2025).

Tests used:
[1] = target: T1, norepinephrine transporter (NET) (Homo sapiens, UniProt P23975); test: Eurofins Cerep competition binding assay at norepinephrine transporter; settings: read-out: NET, percent of control-specific binding
T1 construct: host or cells: CHO cells (membrane preparation)

[2] = target: T2, 5-HT7 receptor (Homo sapiens, UniProt P34969); test: Eurofins Cerep competition binding assay at 5-HT7 receptor; settings: 10 μM test ligand; [3H]LSD; recombinant receptor in HEK-293 cells; read-out: HT7, percent of control-specific binding
T2 construct: host or cells: HEK-293 cells (membrane preparation)
T2 sequence (P34969 whole entry): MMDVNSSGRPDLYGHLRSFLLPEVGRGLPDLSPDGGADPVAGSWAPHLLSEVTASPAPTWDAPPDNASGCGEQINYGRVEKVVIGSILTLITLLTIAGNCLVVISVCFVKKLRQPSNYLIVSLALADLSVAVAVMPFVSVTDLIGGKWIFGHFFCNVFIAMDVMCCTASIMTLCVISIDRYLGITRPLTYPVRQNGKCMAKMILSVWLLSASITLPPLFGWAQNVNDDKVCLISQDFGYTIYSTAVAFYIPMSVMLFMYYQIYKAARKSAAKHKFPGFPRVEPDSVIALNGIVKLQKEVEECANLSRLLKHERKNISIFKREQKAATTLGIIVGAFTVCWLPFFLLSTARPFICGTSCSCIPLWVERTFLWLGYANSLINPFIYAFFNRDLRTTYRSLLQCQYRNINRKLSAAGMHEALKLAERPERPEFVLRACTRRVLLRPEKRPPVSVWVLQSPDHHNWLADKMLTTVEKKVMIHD

[3] = target: T3, 5-HT1A receptor (Homo sapiens, UniProt P08908); test: Eurofins Cerep competition binding assay at 5-HT1A receptor; settings: 10 μM test ligand; [3H]8-OH-DPAT; recombinant receptor in HEK-293 cells; read-out: HT1A, percent of control-specific binding
T3 construct: purchased Perkin Elmer 6110501400UA
T3 sequence (P08908 1-422): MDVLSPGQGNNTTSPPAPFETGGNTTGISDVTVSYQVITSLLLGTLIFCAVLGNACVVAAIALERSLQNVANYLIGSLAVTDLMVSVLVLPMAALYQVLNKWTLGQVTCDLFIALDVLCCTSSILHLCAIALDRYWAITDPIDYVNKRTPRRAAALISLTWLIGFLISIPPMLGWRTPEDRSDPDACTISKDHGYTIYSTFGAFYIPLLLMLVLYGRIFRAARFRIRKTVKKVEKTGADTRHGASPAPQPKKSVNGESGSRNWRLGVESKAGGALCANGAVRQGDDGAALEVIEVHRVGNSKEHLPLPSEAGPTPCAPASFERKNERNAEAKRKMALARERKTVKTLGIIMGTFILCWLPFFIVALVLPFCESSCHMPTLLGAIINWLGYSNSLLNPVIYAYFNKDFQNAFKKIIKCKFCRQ

[4] = target: T4, 5-HT2B receptor (Homo sapiens, UniProt P41595); test: Eurofins Cerep competition binding assay at 5-HT2B receptor; settings: 10 μM test ligand; [3H]mesulergine; recombinant receptor in CHO cells; read-out: HT2B, percent of control-specific binding
T4 construct: host or cells: CHO cells (membrane preparation)
T4 sequence (P41595 whole entry): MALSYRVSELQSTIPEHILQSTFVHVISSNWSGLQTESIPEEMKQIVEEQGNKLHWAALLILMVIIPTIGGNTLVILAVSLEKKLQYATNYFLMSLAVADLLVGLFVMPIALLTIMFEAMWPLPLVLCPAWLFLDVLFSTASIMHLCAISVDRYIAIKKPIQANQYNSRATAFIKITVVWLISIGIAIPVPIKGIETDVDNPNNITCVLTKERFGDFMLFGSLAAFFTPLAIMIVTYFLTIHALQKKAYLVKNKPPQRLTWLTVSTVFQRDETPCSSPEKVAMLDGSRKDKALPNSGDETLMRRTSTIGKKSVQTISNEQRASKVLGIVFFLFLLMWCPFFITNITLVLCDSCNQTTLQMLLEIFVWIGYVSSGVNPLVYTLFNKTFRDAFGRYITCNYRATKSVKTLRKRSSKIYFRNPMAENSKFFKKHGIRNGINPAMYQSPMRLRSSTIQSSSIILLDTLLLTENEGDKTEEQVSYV

[5] = target: T5, 5-HT2A receptor (Homo sapiens, UniProt P28223); test: biochemical; assay type: binding; settings: 10 μM test molecule; [125I](±)DOI; recombinant receptor in HEK-293 cells; read-out: HT2A, percent of control-specific binding
T5 construct: host or cells: HEK-293 cells (membrane preparation)
T5 sequence (P28223 whole entry): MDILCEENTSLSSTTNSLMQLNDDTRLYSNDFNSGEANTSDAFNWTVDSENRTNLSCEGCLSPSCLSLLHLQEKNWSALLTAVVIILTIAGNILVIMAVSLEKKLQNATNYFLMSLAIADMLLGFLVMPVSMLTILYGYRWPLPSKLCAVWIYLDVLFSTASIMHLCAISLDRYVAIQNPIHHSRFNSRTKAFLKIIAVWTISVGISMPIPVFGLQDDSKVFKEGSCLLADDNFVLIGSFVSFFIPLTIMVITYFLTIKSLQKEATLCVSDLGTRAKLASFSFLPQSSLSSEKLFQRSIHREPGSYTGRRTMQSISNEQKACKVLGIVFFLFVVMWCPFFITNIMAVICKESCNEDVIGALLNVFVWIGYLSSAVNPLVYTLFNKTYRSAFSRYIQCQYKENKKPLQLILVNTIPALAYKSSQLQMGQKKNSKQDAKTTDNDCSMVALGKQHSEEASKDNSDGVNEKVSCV

[6] = target: T6, MT1 receptor (Homo sapiens, UniProt P48039); test: Eurofins Cerep competition binding assay at MT1 receptor; settings: read-out: MT1, percent of control-specific binding
T6 construct: host or cells: CHO cells (membrane preparation)
T6 sequence (P48039 whole entry): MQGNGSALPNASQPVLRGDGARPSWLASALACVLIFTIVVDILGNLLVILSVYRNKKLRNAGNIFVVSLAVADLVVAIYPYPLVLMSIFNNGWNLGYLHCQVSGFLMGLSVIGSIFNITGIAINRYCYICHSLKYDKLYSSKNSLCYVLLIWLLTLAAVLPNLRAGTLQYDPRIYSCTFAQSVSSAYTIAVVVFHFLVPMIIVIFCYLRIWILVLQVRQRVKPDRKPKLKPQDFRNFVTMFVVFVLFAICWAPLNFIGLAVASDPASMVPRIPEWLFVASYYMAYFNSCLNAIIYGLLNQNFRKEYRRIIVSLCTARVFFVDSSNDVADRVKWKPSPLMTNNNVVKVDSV

[7] = target: T7, serotonin transporter (SERT) (Homo sapiens, UniProt P31645); test: biochemical; assay type: binding; settings: read-out: SERT, percent of control-specific binding
T7 construct: host or cells: CHO cells (membrane preparation)
T7 sequence (P31645 whole entry): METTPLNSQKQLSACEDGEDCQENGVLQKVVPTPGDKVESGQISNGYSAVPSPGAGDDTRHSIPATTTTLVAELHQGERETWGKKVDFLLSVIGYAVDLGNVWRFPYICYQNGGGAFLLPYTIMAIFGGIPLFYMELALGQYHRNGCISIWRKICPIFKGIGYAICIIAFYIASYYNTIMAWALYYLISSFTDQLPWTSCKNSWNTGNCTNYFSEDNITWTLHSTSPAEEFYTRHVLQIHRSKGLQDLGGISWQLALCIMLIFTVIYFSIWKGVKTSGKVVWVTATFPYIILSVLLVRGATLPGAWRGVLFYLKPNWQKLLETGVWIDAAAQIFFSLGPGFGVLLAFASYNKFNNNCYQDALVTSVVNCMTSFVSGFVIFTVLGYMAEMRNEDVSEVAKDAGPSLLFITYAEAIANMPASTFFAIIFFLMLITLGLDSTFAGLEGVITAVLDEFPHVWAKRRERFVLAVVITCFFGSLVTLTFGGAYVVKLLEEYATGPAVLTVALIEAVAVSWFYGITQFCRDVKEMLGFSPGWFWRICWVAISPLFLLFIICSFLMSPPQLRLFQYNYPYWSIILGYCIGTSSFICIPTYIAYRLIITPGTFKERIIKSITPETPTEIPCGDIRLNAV

[8] = target: T8, D3 receptor (Homo sapiens, UniProt P35462); test: Eurofins Cerep competition binding assay at D3 receptor; settings: 10 μM test ligand; [3H]methylspiperone; recombinant receptor in CHO cells; read-out: D3, percent of control-specific binding
T8 construct: host or cells: CHO cells (membrane preparation)
T8 sequence (P35462 whole entry): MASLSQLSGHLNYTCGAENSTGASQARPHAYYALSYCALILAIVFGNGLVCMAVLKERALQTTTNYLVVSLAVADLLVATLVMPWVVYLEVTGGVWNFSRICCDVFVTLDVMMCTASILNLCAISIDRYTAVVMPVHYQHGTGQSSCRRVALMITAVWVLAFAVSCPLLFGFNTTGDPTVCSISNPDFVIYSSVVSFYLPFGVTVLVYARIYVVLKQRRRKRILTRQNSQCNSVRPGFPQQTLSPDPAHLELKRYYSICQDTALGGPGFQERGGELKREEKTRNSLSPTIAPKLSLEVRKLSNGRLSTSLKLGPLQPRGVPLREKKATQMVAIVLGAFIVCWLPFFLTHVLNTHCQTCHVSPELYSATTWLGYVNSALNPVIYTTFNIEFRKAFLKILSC

[9] = target: T9, alpha2A receptor (Homo sapiens, UniProt P08913); test: Eurofins Cerep competition binding assay at alpha2A receptor; settings: 10 μM test ligand; [3H]RX 821002; recombinant receptor in CHO cells
T9 construct: host or cells: CHO cells (membrane preparation)
T9 sequence (P08913 1-465): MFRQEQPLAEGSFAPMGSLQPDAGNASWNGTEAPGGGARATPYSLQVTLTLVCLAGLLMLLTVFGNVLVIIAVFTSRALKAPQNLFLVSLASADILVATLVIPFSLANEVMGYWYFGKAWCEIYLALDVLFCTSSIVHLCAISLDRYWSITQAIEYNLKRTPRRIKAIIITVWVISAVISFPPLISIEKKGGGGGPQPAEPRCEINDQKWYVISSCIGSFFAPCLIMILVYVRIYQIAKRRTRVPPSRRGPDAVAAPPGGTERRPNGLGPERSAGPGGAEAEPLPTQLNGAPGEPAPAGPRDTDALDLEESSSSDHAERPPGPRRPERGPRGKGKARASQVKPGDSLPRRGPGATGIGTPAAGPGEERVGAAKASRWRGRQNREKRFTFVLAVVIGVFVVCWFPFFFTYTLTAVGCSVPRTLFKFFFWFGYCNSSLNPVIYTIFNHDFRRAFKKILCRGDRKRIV

[10] = target: T10, dopamine transporter (DAT) (Homo sapiens, UniProt Q01959); test: Eurofins Cerep competition binding assay at dopamine transporter; settings: read-out: DAT, percent of control-specific binding
T10 construct: host or cells: CHO cells (membrane preparation)
T10 sequence (Q01959 whole entry): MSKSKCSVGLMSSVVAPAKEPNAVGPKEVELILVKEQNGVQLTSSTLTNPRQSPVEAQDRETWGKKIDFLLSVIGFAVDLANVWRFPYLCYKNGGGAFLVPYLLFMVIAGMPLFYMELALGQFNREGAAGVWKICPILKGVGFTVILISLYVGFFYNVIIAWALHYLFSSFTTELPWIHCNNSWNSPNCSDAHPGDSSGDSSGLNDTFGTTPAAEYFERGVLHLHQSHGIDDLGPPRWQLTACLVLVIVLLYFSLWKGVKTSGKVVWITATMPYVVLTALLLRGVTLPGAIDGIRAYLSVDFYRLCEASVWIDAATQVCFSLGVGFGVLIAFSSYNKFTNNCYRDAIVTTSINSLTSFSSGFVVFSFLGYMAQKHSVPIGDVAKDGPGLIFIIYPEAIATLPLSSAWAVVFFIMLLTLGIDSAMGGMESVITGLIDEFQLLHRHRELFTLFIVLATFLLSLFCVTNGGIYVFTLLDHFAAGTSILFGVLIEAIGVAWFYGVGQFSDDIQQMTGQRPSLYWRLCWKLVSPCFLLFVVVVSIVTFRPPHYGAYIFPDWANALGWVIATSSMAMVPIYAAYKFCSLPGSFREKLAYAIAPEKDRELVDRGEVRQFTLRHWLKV

[11] = target: T3, 5-HT1A receptor; test: 5-HT1A receptor radioligand competition assay (SPA, 8-hydroxy-DPAT [3H]); assay type: binding; settings: 0.5 nM hot 8-hydroxy-DPAT, membranes containing 5-HT1A
[12] = target: T11, 5-HT2C receptor (Homo sapiens, UniProt P28335); test: Eurofins Cerep competition binding assay at 5-HT2C receptor; settings: 10 μM test ligand; [125I](±)DOI; recombinant receptor in HEK-293 cells; read-out: HT2C, percent of control-specific binding
T11 construct: host or cells: HEK-293 cells (membrane preparation)
T11 sequence (P28335 33-458): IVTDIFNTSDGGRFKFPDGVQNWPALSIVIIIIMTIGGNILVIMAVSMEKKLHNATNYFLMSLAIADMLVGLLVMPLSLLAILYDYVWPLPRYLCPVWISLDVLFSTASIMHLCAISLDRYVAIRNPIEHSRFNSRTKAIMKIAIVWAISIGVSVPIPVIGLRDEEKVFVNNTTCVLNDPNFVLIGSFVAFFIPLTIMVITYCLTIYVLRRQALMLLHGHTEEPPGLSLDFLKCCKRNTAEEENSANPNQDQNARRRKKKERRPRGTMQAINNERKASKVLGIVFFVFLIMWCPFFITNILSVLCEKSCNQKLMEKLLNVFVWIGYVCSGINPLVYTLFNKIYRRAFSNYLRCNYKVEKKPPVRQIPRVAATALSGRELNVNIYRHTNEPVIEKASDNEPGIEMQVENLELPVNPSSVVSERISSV

[13] = target: T3, 5-HT1A receptor; test: Functional 5-HT1A receptor cAMP assay in CHO-K1/5-HT1A/Gα15 cells; assay type: cell-based

T1 sequence (P23975 whole entry): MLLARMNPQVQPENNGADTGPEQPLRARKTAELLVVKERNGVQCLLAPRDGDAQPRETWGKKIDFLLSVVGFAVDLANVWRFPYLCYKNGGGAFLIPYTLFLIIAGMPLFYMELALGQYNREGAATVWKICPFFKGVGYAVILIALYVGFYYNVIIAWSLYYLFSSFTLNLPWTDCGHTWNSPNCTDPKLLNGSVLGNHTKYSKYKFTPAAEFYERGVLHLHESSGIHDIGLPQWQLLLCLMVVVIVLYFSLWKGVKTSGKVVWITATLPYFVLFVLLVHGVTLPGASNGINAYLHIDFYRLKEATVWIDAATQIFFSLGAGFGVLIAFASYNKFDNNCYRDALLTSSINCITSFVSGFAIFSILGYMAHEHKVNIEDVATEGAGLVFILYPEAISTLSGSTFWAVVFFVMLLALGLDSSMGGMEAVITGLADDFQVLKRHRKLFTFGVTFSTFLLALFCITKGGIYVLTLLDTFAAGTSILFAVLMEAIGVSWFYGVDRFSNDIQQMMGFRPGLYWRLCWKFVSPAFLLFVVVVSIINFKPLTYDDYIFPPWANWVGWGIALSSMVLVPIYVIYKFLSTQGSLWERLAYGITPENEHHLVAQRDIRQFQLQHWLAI

| SMILES | inhibition at 10 µM [5] | inhibition at 10 µM [8] | α-2A, percent of control-specific binding [9] | other results |
| --- | --- | --- | --- | --- |
| O=C(CCc1cc2c(cc1Br)OCO2)N1CCCC1 [F(IV)] | 0% | 12% | 4% | inhibition at 10 µM [1]: 0%; inhibition at 10 µM [2]: 0%; inhibition at 10 µM [3]: 37%; inhibition at 10 µM [4]: 26%; inhibition at 10 µM [6]: 42%; inhibition at 10 µM [7]: 0%; inhibition at 10 µM [10]: 0%; Ki [11]: 84.5 µM; inhibition at 10 µM [12]: 8% |
| COc1cc2c(cc1CCC(=O)N1CCCC1)OCO2 [F(V)] |  |  |  | Ki [11]: 364 µM; EC50 [13]: 10 µM |
| Brc1cc2c(cc1CCC1=NCCO1)OCO2 [G(V)] |  |  |  | EC50 [13]: 130 µM |
| CN(C)CCCN1c2ccccc2CCc2ccccc21 [Imipramine] | 97% | 92% | 57% |  |
| COc1ccc2[nH]cc(CCNC(C)=O)c2c1 [Melatonin] |  | 2% | −7% |  |
| O=c1n(CCCN2CCN(c3cccc(Cl)c3)CC2)nc2ccccn12 [Trazodone] |  | 89% | 91% |  |
| N#Cc1ccc2[nH]cc(CCCCN3CCN(c4ccc5oc(C(N)=O)cc5c4)CC3)c2c1 [Vilazodone] | 94% | 99% | 65% |  |
| COc1cc(CCN)cc(OC)c1OC [mescaline, 3,4,5 trimethoxyphenethylamine] | 79% | -13% | 57% |  |
| CCCOc1c(OC)cc(CCN)cc1OC [proscaline] | 91% | 4% | 40% |  |
| NCCc1c[nH]c2ccc(O)cc12 [serotonin] |  | 73% | 18% |  |
| N[C@@H](Cc1c[nH]c2ccccc12)C(=O)O [tryptophan] | -1% | -23% | −4% |  |
| Cc1ccc(Sc2ccccc2N2CCNCC2)c(C)c1 [vortioxetine] | 90% | 88% | 62% |  |
